Structures can show the parent of a compound that is named as a salt.
Columns and labels:
tubulin = molecular target: T1, tubulin (Sus scrofa, UniProt P02550+P02554); assay: Evaluation of the inhibition of tubulin polymerization (turbidimetry); format: biochemical, pig; details: tubulin 10 μm (1 mg/ml), 37° C., turbidity at 350 nm; concentration that inhibits the rate of polymerization by 50%; read-out: Inhibition of tubulin polymerization IC 50 (μm)
T1 construct: Tubulin is purified from pig brain according to published methods; from tissue; host or cells: pig brain
T1 sequence (P02550 whole entry): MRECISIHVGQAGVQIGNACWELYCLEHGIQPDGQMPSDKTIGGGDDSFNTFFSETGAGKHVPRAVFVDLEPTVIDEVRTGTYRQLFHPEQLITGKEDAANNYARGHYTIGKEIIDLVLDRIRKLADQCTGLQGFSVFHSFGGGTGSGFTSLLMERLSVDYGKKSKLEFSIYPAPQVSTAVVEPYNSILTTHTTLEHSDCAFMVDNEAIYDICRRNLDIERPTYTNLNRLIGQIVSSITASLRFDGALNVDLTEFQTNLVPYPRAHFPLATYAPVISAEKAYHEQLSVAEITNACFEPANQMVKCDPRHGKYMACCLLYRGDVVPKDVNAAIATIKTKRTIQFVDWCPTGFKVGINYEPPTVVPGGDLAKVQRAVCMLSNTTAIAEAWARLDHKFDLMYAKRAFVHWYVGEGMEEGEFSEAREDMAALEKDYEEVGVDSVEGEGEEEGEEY
T1 sequence (P02554 whole entry): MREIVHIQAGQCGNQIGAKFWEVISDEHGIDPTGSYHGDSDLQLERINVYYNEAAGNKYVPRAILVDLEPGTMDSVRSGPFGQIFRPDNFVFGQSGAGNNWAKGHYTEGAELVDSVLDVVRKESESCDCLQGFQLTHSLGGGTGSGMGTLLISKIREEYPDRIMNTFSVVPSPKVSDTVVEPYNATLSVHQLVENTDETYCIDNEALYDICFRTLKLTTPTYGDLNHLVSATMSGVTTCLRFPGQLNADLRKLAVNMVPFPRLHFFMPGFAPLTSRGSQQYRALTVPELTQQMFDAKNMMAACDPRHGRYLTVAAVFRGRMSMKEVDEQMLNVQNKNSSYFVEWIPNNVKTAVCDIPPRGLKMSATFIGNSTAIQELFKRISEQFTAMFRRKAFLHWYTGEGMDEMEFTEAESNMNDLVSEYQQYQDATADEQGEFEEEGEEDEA
Procedure, shortened: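 Pig brain tubulin (>95% pure), 10 μm in MES pH 6.8/30% glycerol buffer plus 1 mM GTP and 6 mM MgCl2, with compound at 0.5–10 μm added before polymerization. Polymerization triggered by shift from 6° C to 37° C, followed by turbidity at 350 nm; IC50 is 50% inhibition of polymerization rate.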

HCT116 cells = assay: Inhibition of proliferation of the human colon tumor line HCT116 ([14C]-thymidine incorporation); format: cell-based; details: Homo sapiens, HCT-116, 48 h, 48 hours at 37° C., read-out: Inhibition of HCT116 proliferation IC 50 (μm)
Procedure, shortened: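 HCT116 cells (5000/well) in DMEM with 10% fetal calf serum incubated 48 h at 37° C with [14C]-thymidine (0.1 μCi/well) and compound up to 10 μm (DMSO ≤0.5%). Incorporated radioactivity counted; IC50 is concentration cutting radioactivity by 50% versus untreated control.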

SMILES | IC50 (tubulin) [nM] | IC50 (HCT116 cells) [nM]
Cc1cc(C(=O)N2CCN(c3cccc(Cl)c3)CC2)n(-c2ccccn2)n1 [Example E22, [4-(3-Chlorophenyl)piperazin-1-yl](5-methyl-2-pyrid-2-yl-2H-pyrazol-3-yl)-methanone] | 1900 | 6.4
Cc1cc(C(=O)N2CCN(c3cccc(-c4ccccc4)c3)CC2)n(-c2ccccc2)n1 [Example E24, [4-(Biphenyl-3-yl)piperazin-1-yl)(5-methyl-2-phenyl-2H-pyrazol-3-yl)methanone] | 1700 | 312
Cc1cc(C(=O)N2CCN(c3cncc(Cl)c3)CC2)n(-c2ccccc2)n1 [Example E33, [4-(5-Chloro-3-pyridyl)piperazin-1-yl](5-methyl-2-phenyl-2H-pyrazol-3-yl)methanone] | 900 | 8.9
CNc1cccc(N2CCN(C(=O)c3cc(C)nn3-c3ccccc3)CC2)c1 [Example E34, [4-(3-Methylaminophenyl)piperazin-1-yl](5-methyl-2-phenyl-2H-pyrazol-3-yl)-methanone] | 800 | 14
Cc1cc(C(=O)N2CCN(c3cccc(Cl)c3)CC2)n(-c2cnccn2)n1 [Example E36, [4-(3-Chlorophenyl)piperazin-1-yl](5-methyl-2-pyrazin-2-yl-2H-pyrazol-3-yl)-methanone] | 20000 | 939
Cc1cc(C(=O)N2CCN(c3cccc(Cl)c3)CC2)n(-c2nccs2)n1 [Example E37, [4-(3-Chlorophenyl)piperazin-1-yl](5-methyl-2-thiazol-2-yl-2H-pyrazol-3-yl)-methanone] | 2000 | 37.7

The next lines start with the values.

IC50 (tubulin) [nM] | IC50 (HCT116 cells) [nM] | SMILES
290 | 1.5 | COc1cc(OC)cc(N2CCN(C(=O)c3cc(C)nn3-c3ccccc3)CC2)c1 [Example E20, [4-(3,5-Dimethoxyphenyl)piperazin-1-yl](5-methyl-2-phenyl-2H-pyrazol-3-yl)-methanone]
9500 | 198 | Cc1cc(C(=O)N2CCN(c3ccccc3)CC2)n(-c2ccccn2)n1 [Example E21, (5-Methyl-2-pyrid-2-yl-2H-pyrazol-3-yl)(4-phenylpiperazin-1-yl)methanone]
6400 | 135 | Cc1cc(C(=O)N2CCN(c3cccc(S(C)(=O)=O)c3)CC2)n(-c2ccccc2)n1 [Example E26, [4-(3-Methanesulfonylphenyl)piperazin-1-yl](5-methyl-2-phenyl-2H-pyrazol-3-yl)methanone]
3400 | 60.6 | CCOC(=O)c1cccc(N2CCN(C(=O)c3cc(C)nn3-c3ccccc3)CC2)c1 [Example E28, ethyl ester of 3-[4-(5-methyl-2-phenyl-2H-pyrazole-3-carbonyl)piperazin-1-yl]benzoic acid]
1500 | 20.8 | Cc1ccnc(N2CCN(C(=O)c3cc(C)nn3-c3ccccc3)CC2)c1 [Example E31, (5-Methyl-2-phenyl-2H-pyrazol-3-yl)[4-(4-methylpyrid-2-yl)piperazin-1-yl]methanone]
3100 | 514 | Cc1cc(C(=O)N2CCN(c3cccc(NCc4ccccc4)c3)CC2)n(-c2ccccc2)n1 [Example E32, [4-(3-Phenylmethylaminophenyl)piperazin-1-yl](5-methyl-2-phenyl-2H-pyrazol-3-yl)methanone hydrochloride]
4000 | 19.6 | Cc1cc(C(=O)N2CCN(c3cccc(Cl)c3)CC2)n(-c2ncccc2C#N)n1 [Example E38, 2-{5-[4-(3-Chlorophenyl)piperazine-1-carbonyl]-3-methylpyrazol-1-yl}nicotinonitrile]
2500 | 71.9 | Cc1cc(C(=O)N2CCN(c3cccc(C(C)O)c3)CC2)n(-c2ccccc2)n1 (stereo not shown) [Example E39, {4-[3-(1-Hydroxyethyl)phenyl]piperazin-1-yl}(5-methyl-2-phenyl-2H-pyrazol-3-yl)methanone hydrochloride]
